This is an account of results in ChEMBL document CHEMBL3991601, “The target landscape of clinical kinase drugs” (Science, 2017).

Experiment [1] has as its target cAMP-dependent protein kinase catalytic subunit alpha (Homo sapiens, UniProt P17612).
The next experiment concerns the target T1, Ephrin type-B receptor 3 (Homo sapiens, UniProt P54753).
T1 sequence (P54753 whole entry): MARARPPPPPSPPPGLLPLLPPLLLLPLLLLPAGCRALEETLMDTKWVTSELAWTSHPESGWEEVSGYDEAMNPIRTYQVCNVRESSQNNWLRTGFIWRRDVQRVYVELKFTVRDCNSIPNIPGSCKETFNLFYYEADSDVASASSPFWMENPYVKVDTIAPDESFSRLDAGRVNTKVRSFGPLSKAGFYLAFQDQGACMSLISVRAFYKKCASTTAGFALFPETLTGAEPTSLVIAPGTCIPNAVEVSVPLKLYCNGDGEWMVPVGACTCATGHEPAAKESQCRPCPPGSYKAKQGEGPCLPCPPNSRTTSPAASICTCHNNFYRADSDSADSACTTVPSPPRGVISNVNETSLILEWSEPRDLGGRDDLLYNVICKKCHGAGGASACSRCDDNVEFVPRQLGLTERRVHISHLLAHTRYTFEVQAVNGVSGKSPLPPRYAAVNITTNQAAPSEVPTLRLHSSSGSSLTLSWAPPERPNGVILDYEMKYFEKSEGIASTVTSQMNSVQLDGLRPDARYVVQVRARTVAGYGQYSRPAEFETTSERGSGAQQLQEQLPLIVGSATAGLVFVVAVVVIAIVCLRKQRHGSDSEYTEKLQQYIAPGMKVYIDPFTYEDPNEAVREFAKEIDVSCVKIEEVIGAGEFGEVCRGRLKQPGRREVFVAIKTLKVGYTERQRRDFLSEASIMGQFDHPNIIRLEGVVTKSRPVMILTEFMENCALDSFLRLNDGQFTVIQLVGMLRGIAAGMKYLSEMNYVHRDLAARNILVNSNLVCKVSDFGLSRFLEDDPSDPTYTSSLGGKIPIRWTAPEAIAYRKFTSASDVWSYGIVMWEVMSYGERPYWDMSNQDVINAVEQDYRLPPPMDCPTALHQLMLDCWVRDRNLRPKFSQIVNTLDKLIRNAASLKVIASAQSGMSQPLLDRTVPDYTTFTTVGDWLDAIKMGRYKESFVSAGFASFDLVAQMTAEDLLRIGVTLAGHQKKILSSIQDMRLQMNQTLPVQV

Experiment [2] has as its target T2, AarF domain-containing protein kinase 1 (Homo sapiens, UniProt Q86TW2).
T2 sequence (Q86TW2 whole entry): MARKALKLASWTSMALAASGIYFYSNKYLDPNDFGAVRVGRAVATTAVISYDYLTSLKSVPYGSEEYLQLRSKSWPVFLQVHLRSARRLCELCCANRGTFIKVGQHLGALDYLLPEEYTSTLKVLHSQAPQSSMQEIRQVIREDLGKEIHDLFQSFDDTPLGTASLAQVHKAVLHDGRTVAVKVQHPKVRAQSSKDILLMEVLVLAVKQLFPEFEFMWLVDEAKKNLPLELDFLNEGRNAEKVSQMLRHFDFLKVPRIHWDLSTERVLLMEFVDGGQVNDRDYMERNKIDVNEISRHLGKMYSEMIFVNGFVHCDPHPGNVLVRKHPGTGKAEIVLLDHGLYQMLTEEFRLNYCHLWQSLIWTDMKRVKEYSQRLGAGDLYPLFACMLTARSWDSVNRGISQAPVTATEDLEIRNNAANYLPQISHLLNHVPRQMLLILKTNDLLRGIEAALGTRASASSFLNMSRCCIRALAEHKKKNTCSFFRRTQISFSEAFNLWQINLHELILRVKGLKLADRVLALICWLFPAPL

In experiment [3] the target is Tyrosine-protein kinase Lck (Homo sapiens, UniProt P06239).
For experiment [4], the target named is T3, Calcium/calmodulin-dependent protein kinase type IV (Homo sapiens, UniProt Q16566).
T3 sequence (Q16566 whole entry): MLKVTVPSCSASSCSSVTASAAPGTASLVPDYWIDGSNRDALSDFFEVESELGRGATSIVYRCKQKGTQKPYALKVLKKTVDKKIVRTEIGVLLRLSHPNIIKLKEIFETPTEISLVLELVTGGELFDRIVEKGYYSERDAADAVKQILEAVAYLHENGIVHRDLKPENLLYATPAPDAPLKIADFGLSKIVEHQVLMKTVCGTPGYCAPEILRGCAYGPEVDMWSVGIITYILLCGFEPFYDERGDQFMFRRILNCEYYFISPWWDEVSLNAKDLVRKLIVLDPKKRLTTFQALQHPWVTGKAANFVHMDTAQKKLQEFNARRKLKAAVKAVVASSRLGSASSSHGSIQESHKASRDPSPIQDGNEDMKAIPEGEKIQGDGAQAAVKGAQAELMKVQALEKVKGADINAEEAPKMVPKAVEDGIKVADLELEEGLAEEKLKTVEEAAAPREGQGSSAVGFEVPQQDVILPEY

Experiment [5] addresses Maternal embryonic leucine zipper kinase (Homo sapiens, UniProt Q14680).
In experiment [6] the target is T4, Phosphatidylinositol 5-phosphate 4-kinase type-2 gamma (Homo sapiens, UniProt Q8TBX8).
T4 sequence (Q8TBX8 whole entry): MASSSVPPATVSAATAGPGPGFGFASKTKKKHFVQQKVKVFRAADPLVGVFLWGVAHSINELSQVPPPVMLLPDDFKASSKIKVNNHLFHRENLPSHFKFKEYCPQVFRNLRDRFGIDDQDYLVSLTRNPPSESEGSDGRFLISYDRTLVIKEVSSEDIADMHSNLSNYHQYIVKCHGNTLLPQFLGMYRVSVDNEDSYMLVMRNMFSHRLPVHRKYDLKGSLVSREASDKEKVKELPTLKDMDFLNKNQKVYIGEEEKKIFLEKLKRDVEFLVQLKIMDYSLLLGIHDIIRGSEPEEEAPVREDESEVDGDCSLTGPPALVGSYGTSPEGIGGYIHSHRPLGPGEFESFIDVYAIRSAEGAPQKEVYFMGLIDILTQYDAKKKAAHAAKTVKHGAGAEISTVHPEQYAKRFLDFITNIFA

Calls of active or inactive are those of the source. For most assays here, no stated cut-off is given here; in the data, actives have a measured Kd and inactives only a lower limit.

Chain of Maternal embryonic leucine zipper kinase (Q14680 whole entry): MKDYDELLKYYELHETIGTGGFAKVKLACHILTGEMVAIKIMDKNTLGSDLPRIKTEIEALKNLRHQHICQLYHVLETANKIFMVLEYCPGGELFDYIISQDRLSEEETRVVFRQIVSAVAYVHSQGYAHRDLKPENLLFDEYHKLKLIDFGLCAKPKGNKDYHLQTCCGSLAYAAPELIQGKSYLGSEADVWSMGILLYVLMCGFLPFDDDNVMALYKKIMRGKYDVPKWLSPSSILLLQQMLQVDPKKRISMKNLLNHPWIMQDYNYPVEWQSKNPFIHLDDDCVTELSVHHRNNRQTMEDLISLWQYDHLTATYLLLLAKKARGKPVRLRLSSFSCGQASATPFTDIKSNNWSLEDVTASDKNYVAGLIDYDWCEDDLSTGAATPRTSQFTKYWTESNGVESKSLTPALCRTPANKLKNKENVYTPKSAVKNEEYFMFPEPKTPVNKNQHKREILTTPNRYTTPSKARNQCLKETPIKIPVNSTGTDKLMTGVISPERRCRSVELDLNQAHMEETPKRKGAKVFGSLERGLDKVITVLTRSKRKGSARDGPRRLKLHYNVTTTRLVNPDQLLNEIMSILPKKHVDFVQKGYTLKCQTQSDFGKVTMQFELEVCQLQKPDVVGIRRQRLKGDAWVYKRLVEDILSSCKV
Chain of Tyrosine-protein kinase Lck (P06239 whole entry): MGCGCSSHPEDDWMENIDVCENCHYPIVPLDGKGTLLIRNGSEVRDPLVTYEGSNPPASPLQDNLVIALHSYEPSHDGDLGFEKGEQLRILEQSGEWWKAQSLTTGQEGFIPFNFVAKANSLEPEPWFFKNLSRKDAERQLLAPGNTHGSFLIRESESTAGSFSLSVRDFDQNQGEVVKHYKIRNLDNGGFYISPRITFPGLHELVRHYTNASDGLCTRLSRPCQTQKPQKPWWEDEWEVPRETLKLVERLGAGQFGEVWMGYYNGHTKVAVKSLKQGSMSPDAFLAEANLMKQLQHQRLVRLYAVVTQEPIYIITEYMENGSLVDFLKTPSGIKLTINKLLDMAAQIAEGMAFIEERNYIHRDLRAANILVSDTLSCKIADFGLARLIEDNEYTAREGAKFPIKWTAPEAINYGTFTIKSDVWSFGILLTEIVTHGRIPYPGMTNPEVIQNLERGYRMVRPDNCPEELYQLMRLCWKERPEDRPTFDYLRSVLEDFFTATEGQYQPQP

For orientation: Kd means the constant that tells how readily two partners part at equilibrium. For the molecule `C=CC(=O)N1CCC(Oc2cc3c(Nc4ccc(Cl)c(Cl)c4F)ncnc3cc2OC)CC1` [POZIOTINIB], the Kd (in experiment [1]; on Ephrin type-B receptor 3; in experiment [2]; in experiment [3]; in experiment [4]; in experiment [5]) was > 30 µM (inactive) each time. Besides, in experiment [6], the Kd is > 30 µM (inactive).
Turning to `Cc1cc2c(F)c(Oc3ncnn4cc(OC[C@@H](C)OC(=O)[C@H](C)N)c(C)c34)ccc2[nH]1` [BRIVANIB ALANINATE], the Kd (in experiment [1]; at Ephrin type-B receptor 3; in experiment [2]; in experiment [3]; in experiment [4]; in experiment [5]) was > 30 µM (inactive) in each case. Besides, the Kd in experiment [6] is > 30 µM (inactive).
`C1=C/COCc2cc(ccc2OCCN2CCCC2)Nc2nccc(n2)-c2cccc(c2)COC/1` [PACRITINIB]: the Kd is > 30 µM (inactive) in experiment [1]; > 30 µM (inactive) at Ephrin type-B receptor 3; 0.033 µM (active) in experiment [2]; 6.54 µM (active) in experiment [3]; > 30 µM (inactive) in experiment [4]; > 30 µM (inactive) in experiment [5]. Also, in experiment [6], the Kd is > 30 µM (inactive).
In the case of `C[C@@H]1CN(Cc2ccc(F)cc2)[C@@H](C)CN1C(=O)c1cc2c(C(=O)C(=O)N(C)C)cn(C)c2cc1Cl` [TALMAPIMOD], the Kd (in experiment [1]; at Ephrin type-B receptor 3; in experiment [2]; in experiment [3]; in experiment [4]; in experiment [5]) was > 30 µM (inactive) in each case. Also, the Kd in experiment [6] was > 30 µM (inactive).
`CN1CCC(COc2cnc(-c3cccc(Cn4nc(-c5cccc(C#N)c5)ccc4=O)c3)nc2)CC1` [TEPOTINIB]: the Kd (in experiment [1]; on Ephrin type-B receptor 3; in experiment [2]; in experiment [3]; in experiment [4]; in experiment [5]) was > 30 µM (inactive) each time. In addition, the Kd in experiment [6] is > 30 µM (inactive).
As for `COc1cc2nccc(Oc3ccc(NC(=O)NC4CC4)c(Cl)c3)c2cc1C(N)=O` [LENVATINIB], the Kd (in experiment [1]; at Ephrin type-B receptor 3; in experiment [2]; in experiment [3]; in experiment [4]; in experiment [5]) was > 30 µM (inactive) each time. In addition, the Kd in experiment [6] is > 30 µM (inactive).
In the case of `CNC(=O)c1ccc(C)c(-n2c(C)cc(OCc3ccc(F)cc3F)c(Br)c2=O)c1` [PH-797804], the Kd (in experiment [1]; on Ephrin type-B receptor 3; in experiment [2]; in experiment [3]; in experiment [4]; in experiment [5]) was > 30 µM (inactive) throughout. The Kd in experiment [6] was > 30 µM (inactive).
For the molecule `COc1cc2nccc(Oc3ccc(NC(=O)Nc4cc(C)on4)c(Cl)c3)c2cc1OC` [TIVOZANIB], the Kd was > 30 µM (inactive) in experiment [1]; 5.43 µM (active) on Ephrin type-B receptor 3; > 30 µM (inactive) in experiment [2]; 2.18 µM (active) in experiment [3]; > 30 µM (inactive) in experiment [4]; > 30 µM (inactive) in experiment [5]. The Kd in experiment [6] is > 30 µM (inactive).
`COc1cc(N2CCC(N3CCN(C)CC3)CC2)ccc1Nc1ncnc(Nc2ccccc2S(=O)(=O)C(C)C)n1` [ASP-3026]: the Kd in experiment [1] was > 30 µM (inactive); on Ephrin type-B receptor 3, 5.5 µM (active); in experiment [2] it was > 30 µM (inactive); in experiment [3], 1.27 µM (active); in experiment [4] it was > 30 µM (inactive); in experiment [5], > 30 µM (inactive). Moreover, the Kd in experiment [6] was > 30 µM (inactive).
Regarding `Cc1cc([C@@H](C)Nc2ccccc2C(=O)O)c2nc(N3CCOCC3)cc(=O)n2c1` [AZD-6482], the Kd (in experiment [1]; on Ephrin type-B receptor 3; in experiment [2]; in experiment [3]; in experiment [4]; in experiment [5]) was > 30 µM (inactive) in each case. The Kd in experiment [6] was > 30 µM (inactive).
In the case of `CN1CCC(CNc2ccc3ncc(-c4cccc(OC(F)(F)F)c4)n3n2)CC1` [SGI-1776], the Kd (in experiment [1]; on Ephrin type-B receptor 3; in experiment [2]; in experiment [3]; in experiment [4]; in experiment [5]) was > 30 µM (inactive) throughout. Besides, the Kd in experiment [6] is > 30 µM (inactive).
Take `CC(C)Nc1cc(-c2c[nH]c(C(=O)N[C@H](CO)c3cccc(Cl)c3)c2)c(Cl)cn1` [ULIXERTINIB]: the Kd (in experiment [1]; at Ephrin type-B receptor 3; in experiment [2]; in experiment [3]; in experiment [4]; in experiment [5]) was > 30 µM (inactive) throughout. The Kd in experiment [6] is > 30 µM (inactive).
As for `O=c1sn(-c2cccc3ccccc23)c(=O)n1Cc1ccccc1` [TIDEGLUSIB], the Kd (in experiment [1]; on Ephrin type-B receptor 3; in experiment [2]; in experiment [3]; in experiment [4]; in experiment [5]) was > 30 µM (inactive) each time. In addition, the Kd in experiment [6] was > 30 µM (inactive).
In the case of `CNC(=O)c1cc(Oc2ccc(NC(=O)Nc3ccc(Cl)c(C(F)(F)F)c3)c(F)c2)ccn1` [REGORAFENIB], the Kd (in experiment [1]; at Ephrin type-B receptor 3; in experiment [2]; in experiment [3]; in experiment [4]; in experiment [5]) was > 30 µM (inactive) throughout. The Kd in experiment [6] is > 30 µM (inactive).
On to `Cc1ccc(-n2nc(C(C)(C)C)cc2NC(=O)NCc2cc(F)ccc2Oc2ccc3c(cnn3CCO)c2)cc1` [PEXMETINIB], for which the Kd is > 30 µM (inactive) in experiment [1]; 28.2 µM at Ephrin type-B receptor 3; > 30 µM (inactive) in experiment [2]; > 30 µM (inactive) in experiment [3]; > 30 µM (inactive) in experiment [4]; > 30 µM (inactive) in experiment [5]. Moreover, the Kd in experiment [6] is > 30 µM (inactive).
